Assay results reported in US9067949B2, “Benzofuro[3,2-c] pyridines and related analogs as serotonin sub-type 6 (5-HT6) modulators for the treatment of obesity, metabolic syndrome, cognition and schizophrenia” (Albany Molecular Research, Inc., priority 2011, dated 2015).
Where a name gives a salt, the structure may show the parent alone.

target: human 5-HT6 receptor (Homo sapiens (Human), UniProt P50406); experiment: 5-HT6 radioligand binding assay (SPA format, [N-methyl-3H]-LSD); conditions: human 5-HT6 receptor membranes, 10 nM [N-methyl-3H]-LSD; Ki by Cheng-Prusoff; read-out: human 5HT6 Ki
Sequence (P50406 whole entry): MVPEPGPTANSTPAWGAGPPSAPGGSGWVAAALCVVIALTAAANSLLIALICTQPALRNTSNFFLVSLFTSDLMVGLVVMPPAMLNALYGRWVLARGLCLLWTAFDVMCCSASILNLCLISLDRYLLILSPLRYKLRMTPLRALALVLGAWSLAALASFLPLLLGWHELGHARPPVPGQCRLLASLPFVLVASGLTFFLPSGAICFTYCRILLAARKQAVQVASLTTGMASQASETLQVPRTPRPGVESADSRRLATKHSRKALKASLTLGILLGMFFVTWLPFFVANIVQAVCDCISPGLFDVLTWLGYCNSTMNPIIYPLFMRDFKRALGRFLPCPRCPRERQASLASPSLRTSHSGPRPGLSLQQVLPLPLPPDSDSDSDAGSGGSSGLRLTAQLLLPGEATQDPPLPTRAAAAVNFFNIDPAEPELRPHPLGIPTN
Description: The relative affinities of the various compounds for the 5-HT6 receptor were measured in a radioligand binding assay, using a scintillation proximity assay (SPA) format.
For binding analysis vs. the human receptor, samples were incubated in 50 mM Tris-HCl, pH 7.5, 5 mM MgCl2, 1 mM EDTA (4% DMSO final) with 10 nM [N-methyl-^3H]-LSD (Perkin Elmer), 2.5 ng of human 5-HT6 receptor membranes (Millipore) and 50 μg SPA beads (PVT-PEI-WGA, GE Healthcare) per well in a final volume of 0.2 mL. […] Binding reactions were performed in PicoPlate96 microtiter plates (Perkin Elmer) by consecutively adding 50 μL of each competing compound or buffer, SPA beads, radioligand and 5-HT6 receptor membranes. After an overnight incubation at room temperature on a Nutator mixer, plates were centrifuged for 15 min at 1,500 rpm, followed by incubation in the dark for 10 min. […] Total binding control contained compound dilution buffer only; nonspecific binding is determined in the presence of 100 μM 5-hydroxytryptamine. Specific binding was determined by subtracting nonspecific binding from total binding.
All experiments were performed in duplicate using ten concentrations of competing ligand, with clozapine included as a control in every run. IC50 values were determined from specific binding data using XLfit4.1 curve fitting software from IDBS Ltd. The inhibition constant (Ki) was calculated using the Cheng-Prusoff equation: (Ki=IC50/(1+(L/KD)), where L=concentration of radioligand in the assay, and KD=affinity of the radioligand for the receptor.

SMILES	Ki
Cc1cc(S(=O)(=O)c2ccccc2)cc2c3c(oc12)CCNC3 [Example 53, 6-Methyl-8-(phenylsulfonyl)-1,2,3,4-tetrahydrobenzofuro[3,2-c]pyridine hydrochloride]	0.22 nM
C[C@@H](O)c1ccc(S(=O)(=O)c2cc(Cl)c3oc4c(c3c2)CNCC4)cc1 [Example 141]	3.1 nM
Cc1cc(S(=O)(=O)c2cccc(Cl)c2)cc2c3c(oc12)CCNC3 [Example 195]	0.28 nM
COc1cc(S(=O)(=O)c2ccc3c(c2)CCOC3)cc2c3c(oc12)CCNC3 [Example 158]	0.48 nM
COc1cc(S(=O)(=O)c2ccccc2F)cc2c3c(oc12)CCNC3 [Example 163]	0.19 nM
O=S(=O)(c1ccccc1)c1cc(-n2cncn2)c2oc3c(c2c1)CNCC3 [Example 226]	106 nM
O=S(=O)(c1cccc(F)c1)c1ccc2c3c(oc2c1)CC1CCC3N1 (stereo not shown) [Example 66, 3-(3-Fluorophenyl)sulfonyl-6,7,8,9,10-pentahydro-7,10-epiminocyclohepta[b]benzofuran hydrochloride]	533 nM
O=S(=O)(c1ccccc1)c1cc(Cl)c2oc3c(c2c1)CN(c1cccnc1)CC3 [Example 115]	123 nM
COc1cc(S(=O)(=O)c2ccsc2)cc2c3c(oc12)CCNC3 [Example 187]	0.27 nM
C[C@H](O)c1cccc(S(=O)(=O)c2cc(Cl)c3oc4c(c3c2)CNCC4)c1 [Example 138]	5.1 nM
O=S(=O)(c1cccc(-n2cccn2)c1)c1cc(Cl)c2oc3c(c2c1)CNCC3 [Example 103]	2.2 nM
O=S(=O)(c1cncc(Cl)c1)c1cc(Cl)c2oc3c(c2c1)CNCC3 [Example 119]	20 nM
[O-][S+](c1ccccc1)c1cc(Cl)c2oc3c(c2c1)CNCC3 (stereo not shown) [Example 231]	3.1 nM
COc1cc(S(=O)(=O)c2ccc(C(C)(C)O)cc2)cc2c3c(oc12)CCNC3 [Example 176]	0.74 nM
COc1cc([S+]([O-])c2ccccc2)cc2c3c(oc12)CCNC3 (stereo not shown) [Example 233]	2.4 nM
O=S(=O)(c1ccc(F)c(F)c1)c1cc(Cl)c2oc3c(c2c1)CNCC3 [Example 127]	4 nM

SMILES	Ki
CN(C)C(=O)c1cc(S(=O)(=O)c2ccccc2)cc2c3c(oc12)CCNC3 [Example 223]	1110 nM
CS(=O)(=O)N1CCc2oc3c(Cl)cc(S(=O)(=O)c4ccccc4)cc3c2C1 [Example 144]	492 nM
CC(C)(O)CN1CCc2oc3c(Cl)cc(S(=O)(=O)c4ccccc4)cc3c2C1 [Example 147]	1.2 nM
O=S(=O)(c1ccc(F)cc1)c1cc(Cl)c2oc3c(c2c1)CNCC3 [Example 128]	3 nM
O=S(=O)(c1ccccc1)c1cc(C(F)(F)F)c2oc3c(c2c1)CNCC3 [Example 205]	2.1 nM
O=S(=O)(c1ccccc1)c1cc(OC(F)(F)F)c2oc3c(c2c1)CNCC3 [Example 214]	0.88 nM
COc1cc(S(=O)(=O)c2cc(Cl)cc(Cl)c2)cc2c3c(oc12)CCNC3 [Example 191]	0.23 nM
O=S(=O)(c1ccccc1)c1cc(OC(F)F)c2oc3c(c2c1)CNCC3 [Example 216]	0.33 nM
O=S(=O)(c1cc(Cl)c2oc3c(c2c1)CNCC3)n1ccc2ccccc21 [Example 51, 8-(1H-Indol-1-ylsulfonyl)-6-chloro-1,2,3,4-tetrahydrobenzofuro[3,2-c]pyridine hydrochloride]	0.2 nM
Cn1ncc2cc(S(=O)(=O)c3cc(Cl)c4oc5c(c4c3)CNCC5)ccc21 [Example 124]	37 nM
COc1cc(S(=O)(=O)c2ccccc2CO)cc2c3c(oc12)CCNC3 [Example 159]	1.5 nM
O=S(=O)(c1cc(Cl)c2oc3c(c2c1)CNCC3)c1ccccc1Cl [Example 100]	0.77 nM
CN(C)CC(=O)N1CCc2oc3c(Cl)cc(S(=O)(=O)c4ccccc4)cc3c2C1 [Example 145]	66 nM
O=S(=O)(c1cc(Cl)cc(Cl)c1)c1cc(Cl)c2oc3c(c2c1)CNCC3 [Example 130]	6 nM
NC(=O)c1cc(S(=O)(=O)c2ccccc2)cc2c3c(oc12)CCNC3 [Example 222]	307 nM
